# Measurements: PubChem BioAssay AID449725 (University of Pittsburgh Molecular Library Screening Center, 2010)
# Calls of active or inactive are those of the source. How the calls were made is not given here.
# Tested on: IMR-90 human lung fibroblast viability counter screen
# Assay: cytotoxicity in human IMR-90 lung fibroblasts – cell-based, IC50, cytotoxicity control, dose response (AID 449725);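 further: 48 hour compound exposure before the viability read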
row,Compound,IC50
1,O=C(O)c1ccccc1NC(=O)c1ccccc1C(=O)O,> 25 µM (inactive)
2,O=C(Nc1cc(Cl)ccc1C(=O)O)c1ccc(C(F)(F)F)cc1,> 25 µM (inactive)
3,O=C(Nc1cc(Cl)ccc1C(=O)O)c1ccc(C2CC2)cc1,> 25 µM (inactive)
4,O=C(Cn1sc2ccccc2c1=O)NC1CCCCC1,12.8 µM
5,COc1ccc2sn(-c3ccccc3)c(=O)c2c1,> 25 µM (inactive)
6,O=C(Nc1cc(Cl)ccc1C(=O)O)c1ccc(C2CCCC2)cc1,> 25 µM (inactive)
7,O=c1ccsn1-c1ccccc1,5.79 µM
8,COc1ccc(Nc2cc(Cl)ccc2C(=O)O)cc1,> 25 µM (inactive)
9,C=C(C)c1ccc(C(=O)Nc2cc(Cl)ccc2C(=O)O)cc1,> 25 µM (inactive)
10,COc1ccc(NC(=O)Nc2ccccc2C(=O)O)cc1,> 25 µM (inactive)
11,COc1ccc(C(=O)NC(CC(=O)O)c2ccc(Cl)cc2)cc1 (centres undefined),> 25 µM (inactive)
12,COc1cccc(NC(=O)Cn2sc3ccccc3c2=O)c1,8.77 µM
13,O=c1s[nH]c2ccccc12,> 25 µM (inactive)
14,O=C(Nc1cc(Cl)ccc1C(=O)O)c1ccc2c(c1)OCO2,> 25 µM (inactive)
15,CCc1ccc(C(=O)Nc2cc(Br)ccc2C(=O)O)cc1,> 25 µM (inactive)
16,CC(C(=O)Nc1ccccc1)n1sc2ccccc2c1=O (centres undefined),16.3 µM
17,O=C(Nc1cc(Cl)ccc1C(=O)O)c1ccncc1,> 25 µM (inactive)
18,O=C(c1ccccc1)n1sc2ccccc2c1=O,17 µM
19,CC(=O)Nc1ccc2sn(-c3ccccc3)c(=O)c2c1,24.5 µM
20,COC(=O)c1cc(Cl)ccc1NC(=O)c1ccc(OC)cc1,> 25 µM (inactive)
21,CC1(c2ccc(C(=O)Nc3cc(Cl)ccc3C(=O)O)cc2)CC1,> 25 µM (inactive)
22,COc1cccc(CC(=O)Nc2cc(Cl)ccc2C(=O)O)c1,> 25 µM (inactive)
23,O=C(Nc1cc(Cl)ccc1C(=O)O)c1ccc(-c2ccccc2)cc1,> 25 µM (inactive)
24,O=C(Nc1ccccc1)c1cc(F)ccc1S,> 25 µM (inactive)
25,COc1ccc(C(=O)Nc2cc(Cl)ccc2C(=O)O)cc1,> 25 µM (inactive)
26,COc1ccc(C(=O)Nc2cc(I)ccc2C(=O)O)cc1,> 25 µM (inactive)
27,COc1ccc(C(=O)Nc2cc(Cl)c(Br)cc2C(=O)O)cc1,> 25 µM (inactive)

row,Compound,IC50
1,O=C(Cn1sc2ccccc2c1=O)Nc1cccc(C(F)(F)F)c1,> 25 µM (inactive)
2,O=c1c2c(Br)cccc2sn1-c1ccccc1,> 25 µM (inactive)
3,CC(=O)Nc1ccc2c(=O)n(-c3ccccc3)sc2c1,> 25 µM (inactive)
4,O=C(Nc1cc(Cl)ccc1C(=O)O)c1ccc(Cl)cc1,> 25 µM (inactive)
5,O=C(Nc1cc(Cl)ccc1C(=O)O)c1ccc2ccccc2c1,> 25 µM (inactive)
6,O=c1cc(-c2ccccc2)sn1-c1ccccc1,13.4 µM
7,CCc1ccc(C(=O)Nc2cc(Cl)ccc2C(=O)O)cc1,> 25 µM (inactive)
8,O=c1c2ccccc2sn1-c1cccc(F)c1,7.9 µM
9,O=C(Cn1sc2ccccc2c1=O)Nc1ccc(Br)cc1,> 25 µM (inactive)
10,O=C(Cn1sc2cc(F)ccc2c1=O)Nc1ccccc1,14.8 µM
11,CN(C)c1ccc(C(=O)Nc2cc(Cl)ccc2C(=O)O)cc1,> 25 µM (inactive)
12,Cc1cc(=O)n(-c2ccccc2)s1,9.14 µM
13,N#Cc1ccccc1NC(=O)Cn1sc2ccccc2c1=O,> 25 µM (inactive)
14,COc1ccc(C(=O)Nc2cc(Cl)ccc2C#N)cc1,> 25 µM (inactive)
15,O=C(Cn1sc2ccccc2c1=O)Nc1cccc(Br)c1,> 25 µM (inactive)
16,O=c1c2ccccc2sn1-c1ccc(Cl)cc1Cl,> 25 µM (inactive)
17,Cc1cc(C(C#N)c2ccc(Cl)cc2)c(Cl)cc1NC(=O)c1cc(I)cc(I)c1O (centres undefined),> 25 µM (inactive)
18,COC(=O)c1ccc(Cl)cc1NS(=O)(=O)c1ccc(OC)cc1,13.8 µM
19,O=C(Cn1sc2ccccc2c1=O)Nc1ccccc1,6.93 µM
20,N#Cc1ccc(NC(=O)Cn2sc3ccccc3c2=O)cc1,19.7 µM
21,COc1ccc(C(=O)Nc2cc(Cl)ccc2C(N)=O)cc1,> 25 µM (inactive)
22,O=C(Nc1cc(Cl)ccc1C(=O)O)c1ccsc1,> 25 µM (inactive)
23,COc1ccc(-n2sc3ccccc3c2=O)cc1,5.54 µM
24,CCCCCCC(=O)Nc1cc(Cl)ccc1C(=O)O,> 25 µM (inactive)
25,CC(C)Cc1ccc(C(=O)Nc2cc(Cl)ccc2C(=O)O)cc1,> 25 µM (inactive)
26,Cn1sc(=O)c2ccccc21,18 µM
27,COc1ccc(C(=O)N(C)c2cc(Cl)ccc2C(=O)O)cc1,> 25 µM (inactive)

row,Compound,IC50
1,CCCCCC(=O)Nc1cc(Cl)ccc1C(=O)O,> 25 µM (inactive)
2,COc1ccc(NC(=O)Cn2sc3ccccc3c2=O)cc1,6.49 µM
3,Cn1sc2ccccc2c1=O,2.32 µM
4,CC(C)c1ccc(C(=O)Nc2cc(Cl)ccc2C(=O)O)cc1,> 25 µM (inactive)
5,COc1ccc(C(=O)Nc2cc(Cl)ccc2-c2noc(=O)[nH]2)cc1,> 25 µM (inactive)
6,COc1cccc(C(=O)Nc2cc(Cl)ccc2C(=O)O)c1,> 25 µM (inactive)
7,COc1ccc(C(=O)Nc2cccc(Cl)c2)cc1,> 25 µM (inactive)
8,CC(C)(C)c1ccc(C(=O)Nc2cc(Cl)ccc2O)cc1,> 25 µM (inactive)
9,O=C(Nc1cc(Cl)ccc1C(=O)O)c1ccc(C2CCC2)cc1,> 25 µM (inactive)
10,O=c1c(Br)csn1-c1ccc(Br)cc1,> 25 µM (inactive)
11,Cc1ccccc1N1Cc2ccccc2C1=O,> 25 µM (inactive)
12,COc1ccc(C(=O)NC(CC(=O)O)c2cccc(Cl)c2)cc1 (centres undefined),> 25 µM (inactive)
13,CN(C)S(=O)(=O)c1cccc(-n2sc3ccccc3c2=O)c1,12.8 µM
14,CC(C)(C)c1ccc(C(=O)Nc2cc(Br)ccc2C(=O)O)cc1,> 25 µM (inactive)
15,COc1ccc(C(=O)Nc2ccccc2-c2nn[nH]n2)cc1,> 25 µM (inactive)
16,COc1ccc(C(=O)Nc2ccccc2C(=O)O)cc1Cl,> 25 µM (inactive)
17,COc1ccc(C(=O)Nc2cc(Cl)ccc2O)cc1,> 25 µM (inactive)
18,O=c1c2ccccc2sn1-c1cccc(Cl)c1,> 25 µM (inactive)
19,COc1ccc(N2C(=O)c3ccc(Cl)cc3C2=O)cc1,> 25 µM (inactive)
20,COc1ccc(C(=O)Nc2cc(Cl)ccc2C(=O)O)cc1OC,> 25 µM (inactive)
21,COc1ccc(C(=O)Nc2cc(C(F)(F)F)ccc2C(=O)O)cc1,> 25 µM (inactive)
22,CCc1ccc(C(=O)Nc2cc(Cl)ccc2C(=O)OC)cc1,> 25 µM (inactive)
23,COc1ccc(C(=O)Nc2cc(C(=O)O)ccc2Cl)cc1,> 25 µM (inactive)
24,Cc1ccccc1NC(=O)Cn1sc2ccccc2c1=O,7.37 µM
25,O=C(O)c1ccc(Cl)cc1NC(=O)c1coc2ccccc12,> 25 µM (inactive)
